The values that follow are results of earlier work, collected in patent US20110274751A1 (Sanovel Ilac Sanayi Ve Ticaret Anonim Sirketi, priority 2010, published 2011).

Molecules are shown by their SMILES. Where a name gives a salt, the structure may show the parent alone.

For data set [1] the following is noted: in vivo.

Regarding `COc1ccc(CN2CCNCC2)c(OC)c1OC` [Trimetazidine dihydrochloride], for the setting “water”, the solubility in water entry was “highly-soluble”.
Take `COc1ccc(CN2CCNCC2)c(OC)c1OC` [Trimetazidine, 1-(2,3,4-trimethoxybenzyl)piperazine]: the solubility result is recorded as “considerably high solubility”. Further, the half-life in data set [1] is 6 h.
